Consider 25 compounds from US11897862B2 (Gilead Sciences, Inc., priority 2022, dated 2024).

Common to all, as to type: cell-based
For one assay, the target named is T1, IKZF1 (Homo sapiens, UniProt Q13422+Q96SW2).
T1 construct: expressed in transfected cells
Description: HEK293 HiBiT in vitro degradation of IKZF1. To be noted: for DC50 / IKZF1 Dmax: HEK293 HiBiT; for DC50: 18-24 hr incubation, normalized to DMSO control, read-out: IKZF1 EC50; for IKZF1 Dmax / Dmax: maximum degradation at the highest concentration tested; for Dmax: HEK293, HEK293 HiBiT. A digest of the protocol: (§1)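 Flp-In T-REx HEK293 stable pools carry a single integrated copy of C-terminal HiBiT-tagged IKZF1, IKZF2 or SALL4 under a tetracycline operator, induced overnight at 37 °C with doxycycline ([…] final). Cells were then treated with serially diluted compounds for 18-24 h. Nano-Glo lytic luminescence gave EC50 and Dmax.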
(In general: With HiBiT, luminescence reflects the tagged protein that the partner subunit can reach.)

Assay [1] has as its target T2, IKZF2 (Homo sapiens, UniProt Q96SW2+Q9UKS7). Description: Human whole blood IKZF2 degradation (flow cytometry, CD4/CD25/Foxp3+ Treg cells). Details: endogenous in cells. To be noted: 24 hrs incubation, IKZF2 MFI in CD4/CD25/Foxp3+ Treg cells, flow cytometry; for DC50: read-out: IKZF2 EC50. A digest of the protocol: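 Fresh healthy-donor human whole blood stimulated with CD3/CD28 activator and serially diluted compound for 24 hrs at 37° C. IKZF2 MFI in CD4/CD25/Foxp3+ Tregs (IKZF1 MFI in CD4+ T cells) measured by flow cytometry after RBC lysis, fixation, permeabilization. EC50 and Dmax versus DMSO wells.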
Target sequence in this assay (Q9UKS7 whole entry): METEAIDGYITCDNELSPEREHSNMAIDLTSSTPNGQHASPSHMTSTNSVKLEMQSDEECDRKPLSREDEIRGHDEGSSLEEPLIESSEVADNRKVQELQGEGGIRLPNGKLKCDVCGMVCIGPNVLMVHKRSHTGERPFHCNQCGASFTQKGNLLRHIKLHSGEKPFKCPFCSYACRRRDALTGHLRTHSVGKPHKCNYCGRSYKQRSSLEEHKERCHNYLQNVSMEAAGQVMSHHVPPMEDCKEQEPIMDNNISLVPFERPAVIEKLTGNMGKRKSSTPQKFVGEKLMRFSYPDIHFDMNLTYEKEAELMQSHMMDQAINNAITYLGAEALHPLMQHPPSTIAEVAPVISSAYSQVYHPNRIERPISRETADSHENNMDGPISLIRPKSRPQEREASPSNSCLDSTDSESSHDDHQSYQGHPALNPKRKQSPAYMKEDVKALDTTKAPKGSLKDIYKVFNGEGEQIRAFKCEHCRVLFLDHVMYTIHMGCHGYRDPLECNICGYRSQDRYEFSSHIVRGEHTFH
Target sequence in this assay (Q96SW2 whole entry): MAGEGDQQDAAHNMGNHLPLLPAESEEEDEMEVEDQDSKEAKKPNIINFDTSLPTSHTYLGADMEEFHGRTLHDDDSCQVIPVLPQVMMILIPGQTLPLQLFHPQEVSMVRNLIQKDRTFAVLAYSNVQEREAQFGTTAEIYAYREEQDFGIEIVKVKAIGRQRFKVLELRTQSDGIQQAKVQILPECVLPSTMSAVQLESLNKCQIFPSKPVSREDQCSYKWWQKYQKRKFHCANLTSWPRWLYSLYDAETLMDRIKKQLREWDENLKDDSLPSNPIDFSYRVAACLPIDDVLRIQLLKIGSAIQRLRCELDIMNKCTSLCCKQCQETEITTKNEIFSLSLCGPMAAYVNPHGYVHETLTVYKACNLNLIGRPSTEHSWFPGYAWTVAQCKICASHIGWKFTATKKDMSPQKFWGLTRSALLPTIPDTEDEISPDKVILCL
Target sequence in this assay (Q16531 whole entry partner): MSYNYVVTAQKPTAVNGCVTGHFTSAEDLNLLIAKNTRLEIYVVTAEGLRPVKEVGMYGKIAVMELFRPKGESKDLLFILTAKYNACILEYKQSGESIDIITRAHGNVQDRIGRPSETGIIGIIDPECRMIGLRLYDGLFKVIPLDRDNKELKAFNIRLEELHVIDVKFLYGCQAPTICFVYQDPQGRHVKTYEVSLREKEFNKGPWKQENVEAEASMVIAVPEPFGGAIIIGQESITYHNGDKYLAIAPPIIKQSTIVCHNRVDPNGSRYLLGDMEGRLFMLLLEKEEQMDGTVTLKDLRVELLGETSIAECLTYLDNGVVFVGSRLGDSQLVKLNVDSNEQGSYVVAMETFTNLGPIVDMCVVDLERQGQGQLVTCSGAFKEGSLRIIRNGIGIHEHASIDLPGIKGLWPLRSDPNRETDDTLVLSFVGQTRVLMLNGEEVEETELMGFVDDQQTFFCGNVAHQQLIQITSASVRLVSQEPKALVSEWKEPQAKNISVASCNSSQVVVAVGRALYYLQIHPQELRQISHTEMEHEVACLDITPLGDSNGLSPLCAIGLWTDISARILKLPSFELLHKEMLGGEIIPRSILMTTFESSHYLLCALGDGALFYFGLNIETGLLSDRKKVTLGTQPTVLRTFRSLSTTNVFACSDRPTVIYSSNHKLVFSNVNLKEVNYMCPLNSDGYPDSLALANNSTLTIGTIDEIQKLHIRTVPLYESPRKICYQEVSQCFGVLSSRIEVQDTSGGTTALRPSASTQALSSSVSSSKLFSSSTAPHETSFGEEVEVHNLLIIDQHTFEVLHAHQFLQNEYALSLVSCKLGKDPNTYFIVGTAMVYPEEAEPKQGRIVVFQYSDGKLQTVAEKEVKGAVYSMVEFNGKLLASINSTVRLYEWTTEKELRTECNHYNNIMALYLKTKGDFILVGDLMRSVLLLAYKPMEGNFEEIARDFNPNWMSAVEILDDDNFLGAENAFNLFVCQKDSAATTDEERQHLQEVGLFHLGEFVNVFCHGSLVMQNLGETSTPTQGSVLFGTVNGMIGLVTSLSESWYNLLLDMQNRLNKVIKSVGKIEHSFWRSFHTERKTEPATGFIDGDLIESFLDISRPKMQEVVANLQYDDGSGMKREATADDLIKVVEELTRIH

In assay [2] the target is T2, IKZF2. As to the kind of experiment: HEK293 HiBiT in vitro degradation of IKZF2. Details: expressed in transfected cells. To be noted: for DC50 / IKZF2 Dmax: HEK293 HiBiT; for DC50: 18-24 hr incubation, normalized to DMSO control, read-out: IKZF2 EC50; for IKZF2 Dmax / Dmax: maximum degradation at the highest concentration tested; for Dmax: HEK293, HEK293 HiBiT. A digest of the protocol:
as §1
Target sequence in this assay (Q9UKS7 1-500 isoform Q9UKS7-2): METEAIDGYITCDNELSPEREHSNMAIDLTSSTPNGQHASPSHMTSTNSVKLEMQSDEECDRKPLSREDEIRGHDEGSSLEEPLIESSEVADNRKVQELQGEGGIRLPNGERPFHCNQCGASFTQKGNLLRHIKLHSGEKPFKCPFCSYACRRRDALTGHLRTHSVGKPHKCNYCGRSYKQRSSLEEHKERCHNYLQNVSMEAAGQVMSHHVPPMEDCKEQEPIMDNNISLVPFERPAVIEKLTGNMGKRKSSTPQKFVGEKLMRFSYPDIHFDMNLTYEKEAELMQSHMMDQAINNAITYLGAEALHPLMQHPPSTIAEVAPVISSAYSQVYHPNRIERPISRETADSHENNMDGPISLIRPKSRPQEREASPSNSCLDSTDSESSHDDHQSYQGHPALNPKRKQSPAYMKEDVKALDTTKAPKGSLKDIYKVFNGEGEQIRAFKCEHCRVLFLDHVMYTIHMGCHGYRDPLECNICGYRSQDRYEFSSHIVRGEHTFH
Target sequence in this assay (Q96SW2 whole entry): as the sequence (Q96SW2 whole entry) above
Target sequence in this assay (Q16531 whole entry partner): as the sequence (Q16531 whole entry partner) above

The Dmax is the greatest extent of degradation seen.

T1 sequence (Q13422 whole entry): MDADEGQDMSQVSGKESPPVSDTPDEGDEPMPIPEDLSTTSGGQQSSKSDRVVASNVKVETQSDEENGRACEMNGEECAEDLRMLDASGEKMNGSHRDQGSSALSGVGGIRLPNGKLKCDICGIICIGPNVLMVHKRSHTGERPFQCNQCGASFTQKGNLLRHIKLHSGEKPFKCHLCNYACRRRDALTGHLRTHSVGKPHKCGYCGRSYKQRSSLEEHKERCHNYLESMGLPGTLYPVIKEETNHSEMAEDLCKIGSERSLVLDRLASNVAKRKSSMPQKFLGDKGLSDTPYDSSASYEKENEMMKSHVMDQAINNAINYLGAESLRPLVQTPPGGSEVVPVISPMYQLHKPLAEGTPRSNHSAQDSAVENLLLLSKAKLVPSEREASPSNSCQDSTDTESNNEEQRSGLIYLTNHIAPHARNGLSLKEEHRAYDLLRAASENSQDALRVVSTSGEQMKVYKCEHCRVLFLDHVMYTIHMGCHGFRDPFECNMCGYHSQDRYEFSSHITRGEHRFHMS
T1 sequence (Q96SW2 whole entry): as the sequence (Q96SW2 whole entry) above
T1 sequence (Q16531 whole entry partner): as the sequence (Q16531 whole entry partner) above

Consider `CC1(C)CC(N[C@H]2CCCC[C@@H]2Cc2ccc3c(c2)CN(C2CCC(=O)NC2=O)C3=O)CCO1` (stereo partly shown) [Example 110], for which, at IKZF1, the DC50 was 163 nM and the “IKZF1 Dmax” value came out at 32%. On IKZF2 [1], the “IKZF2 Dmax” value stood at 98% and the DC50 worked out at 3 nM. In addition, at IKZF2 [2], the DC50 came out at 5 nM and the “IKZF2 Dmax” value is listed as 96%.
As for `O=C1CCC(N2Cc3c(ccc(C[C@H]4CCCC[C@@H]4NCC4COC4)c3F)C2=O)C(=O)N1` (stereo partly shown) [Example 114], the Dmax at IKZF1 was 28%; at IKZF2 [1] it was 98%; on IKZF2 [2], 98%. In addition, the DC50 at IKZF1 is 88 nM; at IKZF2 [1] it was 5 nM; at IKZF2 [2], 8 nM.
For the compound `O=C1CCC(N2Cc3c(ccc(C[C@H]4CCCC[C@@H]4NCC4CCOCC4)c3F)C2=O)C(=O)N1` (stereo partly shown) [Example 115], the Dmax on IKZF1 was 37%; at IKZF2 [1], 90%; at IKZF2 [2] it was 96%. Besides, the DC50 on IKZF1 amounted to 78 nM; on IKZF2 [1], 6 nM; on IKZF2 [2], 8 nM.
For `O=C1CCC(N2Cc3c(ccc(C[C@H]4CCCC[C@@H]4NC4CCOC4)c3F)C2=O)C(=O)N1` (stereo partly shown) [Example 117], the Dmax on IKZF1 stood at 46%; at IKZF2 [1], 92%; on IKZF2 [2], 97%. Besides, the figures for the DC50 on IKZF1, on IKZF2 [1] and at IKZF2 [2] were 39 nM, 1 nM and 2 nM, respectively.
In the case of `O=C1CCC(N2Cc3c(ccc(C[C@H]4CCCC[C@@H]4NC4CCOC4)c3F)C2=O)C(=O)N1` (stereo partly shown) [Example 118], on IKZF1, the DC50 was 57 nM and the “IKZF1 Dmax” value is 44%. Further, at IKZF2 [1], the “IKZF2 Dmax” value is 91% and the DC50 is 1 nM. Besides, on IKZF2 [2], the DC50 was 2 nM and the “IKZF2 Dmax” value worked out at 97%.
For `[2H]C1(N[C@H]2CCCC[C@@H]2Cc2ccc3c(c2)CN(C2CCC(=O)NC2=O)C3=O)CCC(F)(F)CC1` (stereo partly shown) [Example 119], the Dmax at IKZF1 turned out to be 54%; on IKZF2 [1], 92%; at IKZF2 [2], 98%. Moreover, the results for the DC50 at IKZF1, on IKZF2 [1] and at IKZF2 [2] were 46 nM, 2 nM and 2 nM, respectively.
With `CN(C1CCC(F)(F)CC1)[C@H]1CCCC[C@@H]1Cc1ccc2c(c1F)CN(C1CCC(=O)NC1=O)C2=O` (stereo partly shown) [Example 124], the figures for the DC50 at IKZF1, on IKZF2 [1] and on IKZF2 [2] were more than 10000 nM, 23 nM and 16 nM, respectively. Moreover, the Dmax on IKZF2 [1] amounted to 91%; on IKZF2 [2], 94%.
For the compound `O=C1CCC(N2Cc3cc(C[C@H]4CCCC[C@@H]4NC4CC5(CCOCC5)C4)ccc3C2=O)C(=O)N1` (stereo partly shown) [Example 125], the Dmax on IKZF1 came to 26%; on IKZF2 [1] it was 91%; on IKZF2 [2], 96%. In addition, the DC50 stood at 126 nM on IKZF1, 3 nM at IKZF2 [1] and 17 nM at IKZF2 [2].
For the compound `CC(C)CCN[C@H]1CCCC[C@@H]1Cc1ccc2c(c1)CN(C1CCC(=O)NC1=O)C2=O` (stereo partly shown) [Example 129], the Dmax at IKZF1 was determined as 25%; on IKZF2 [1] it was 91%; on IKZF2 [2] it was 95%. Also, the DC50 at IKZF1 stood at 93 nM; at IKZF2 [1], 9 nM; at IKZF2 [2], 13 nM.
`CC(N[C@H]1CCCC[C@@H]1Cc1ccc2c(c1)CN(C1CCC(=O)NC1=O)C2=O)C12CC(C1)C2` (stereo partly shown) [Example 138]: the results for the DC50 at IKZF1, at IKZF2 [1] and on IKZF2 [2] were more than 1000 nM, 3 nM and 4 nM, respectively. Moreover, the results for the Dmax on IKZF2 [1] and at IKZF2 [2] were 96% and 98%, respectively.
On to `O=C1CCC(N2Cc3cc(C[C@H]4CCCC[C@@H]4NC4CC5(CCC(F)(F)CC5)C4)ccc3C2=O)C(=O)N1` (stereo partly shown) [Example 142], for which the Dmax on IKZF1 worked out at 33%; at IKZF2 [1] it was 94%; on IKZF2 [2] it was 95%. Moreover, the DC50 on IKZF1 came out at 74 nM; on IKZF2 [1], 5 nM; at IKZF2 [2], 5 nM.
As to `O=C1CCC(N2Cc3c(ccc(C[C@H]4OCCC[C@@H]4NC4CCCC4)c3F)C2=O)C(=O)N1` (stereo partly shown) [Example 148], the DC50 at IKZF1 is more than 1000 nM; at IKZF2 [1] it was 6 nM; at IKZF2 [2] it was 7 nM. The Dmax came out at 92% on IKZF2 [1] and 94% at IKZF2 [2].
On to `C[C@]1(O)CC[C@H](NC2CCC(F)(F)CC2)[C@@H](Cc2ccc3c(c2)CN(C2CCC(=O)NC2=O)C3=O)C1` (stereo partly shown) [Example 155], for which the Dmax on IKZF1 was determined as 27%; on IKZF2 [1] it was 91%; at IKZF2 [2] it was 97%. The DC50 is 226 nM at IKZF1, 12 nM at IKZF2 [1] and 30 nM on IKZF2 [2].
Regarding `COC1CCC(N[C@H]2CCCO[C@@H]2Cc2ccc3c(c2F)CN(C2CCC(=O)NC2=O)C3=O)CC1` (stereo partly shown) [Example 159], the DC50 at IKZF1 was more than 1000 nM; at IKZF2 [1], 5 nM; at IKZF2 [2], 6 nM. Also, the figures for the Dmax on IKZF2 [1] and at IKZF2 [2] were 94% and 100%, respectively.
Take `O=C1CCC(N2Cc3cc(C[C@H]4CCCC[C@@H]4NC4CCCCCC4)ccc3C2=O)C(=O)N1` (stereo partly shown) [Example 196]: the Dmax was 23% at IKZF1, 98% on IKZF2 [1] and 97% on IKZF2 [2]. Also, the DC50 at IKZF1 worked out at 60 nM; on IKZF2 [1], 3 nM; on IKZF2 [2], 3 nM.
For `CC(N[C@H]1CCCC[C@@H]1Cc1ccc2c(c1)CN(C1CCC(=O)NC1=O)C2=O)C1(C)CCC1` (stereo partly shown) [Example 206], the results for the DC50 at IKZF1, on IKZF2 [1] and on IKZF2 [2] were more than 1000 nM, 10 nM and 6 nM, respectively. In addition, the Dmax on IKZF2 [1] is 101%; on IKZF2 [2], 95%.
`CC1(C)CC(N[C@H]2CCCC[C@@H]2Cc2ccc3c(c2)CN(C2CCC(=O)NC2=O)C3=O)CC(C)(C)O1` (stereo partly shown) [Example 208]: the Dmax on IKZF1 stood at 26%; at IKZF2 [1], 97%; on IKZF2 [2], 98%. In addition, the results for the DC50 on IKZF1, at IKZF2 [1] and at IKZF2 [2] were 76 nM, 3 nM and 2 nM, respectively.
For the compound `[2H]C1(N[C@H]2CCCC[C@@H]2Cc2ccc3c(c2)CN(C2CCC(=O)NC2=O)C3=O)CC(C)(C)C1` (stereo partly shown) [Example 214], the Dmax stood at 22% on IKZF1, 98% on IKZF2 [1] and 96% at IKZF2 [2]. The DC50 was 65 nM on IKZF1, 3 nM on IKZF2 [1] and 5 nM on IKZF2 [2].
As for `O=C1CCC(N2Cc3cc(C[C@H]4CCCC[C@@H]4NC4CCC(C(F)F)CC4)ccc3C2=O)C(=O)N1` (stereo partly shown) [Example 217], on IKZF1, the DC50 is 85 nM and the “IKZF1 Dmax” value stood at 44%. On IKZF2 [1], the Dmax was determined as 89% and the DC50 turned out to be 2 nM. In addition, at IKZF2 [2], the DC50 turned out to be 3 nM and the “IKZF2 Dmax” value worked out at 97%.
Turning to `CC(N[C@H]1CCCC[C@@H]1Cc1ccc2c(c1)CN(C1CCC(=O)NC1=O)C2=O)C1CCC1` (stereo partly shown) [Example 219], the DC50 at IKZF1 was more than 1000 nM; on IKZF2 [1], 10 nM; at IKZF2 [2], 6 nM. The results for the “IKZF2 Dmax” value at IKZF2 [1] and on IKZF2 [2] were 97% and 95%, respectively.
As for `CC(CC(C)(C)C)N[C@H]1CCCC[C@@H]1Cc1ccc2c(c1)CN(C1CCC(=O)NC1=O)C2=O` (stereo partly shown) [Example 220], the DC50 on IKZF1 was more than 1000 nM. Moreover, at IKZF2 [1], the Dmax was 98% and the DC50 is 3 nM. At IKZF2 [2], the DC50 was found to be 2 nM and the “IKZF2 Dmax” value came out at 96%.
Consider `CC(CC(C)(C)C)N[C@H]1CCCC[C@@H]1Cc1ccc2c(c1)CN(C1CCC(=O)NC1=O)C2=O` (stereo partly shown) [Example 221], for which the DC50 was more than 1000 nM at IKZF1, 4 nM at IKZF2 [1] and 2 nM at IKZF2 [2]. For the same compound, the figures for the “IKZF2 Dmax” value on IKZF2 [1] and on IKZF2 [2] were 101% and 98%, respectively.
As for `CC1(C)CC(N[C@H]2CCCO[C@@H]2Cc2ccc3c(c2F)CN(C2CCC(=O)NC2=O)C3=O)CCO1` (stereo partly shown) [Example 222], the DC50 is more than 1000 nM at IKZF1, 6 nM at IKZF2 [1] and 18 nM on IKZF2 [2]. The Dmax on IKZF2 [1] is 95%; at IKZF2 [2], 96%.
Turning to `CC1(C)CC(N[C@H]2CCCO[C@@H]2Cc2ccc3c(c2F)CN(C2CCC(=O)NC2=O)C3=O)CCO1` (stereo partly shown) [Example 223], the DC50 on IKZF1 was more than 1000 nM; at IKZF2 [1], 3 nM; at IKZF2 [2] it was 12 nM. Besides, the “IKZF2 Dmax” value came out at 95% at IKZF2 [1] and 96% at IKZF2 [2].
Take `O=C1CCC(N2Cc3c(ccc(C[C@H]4OCCC[C@@H]4NC4CCOCC4)c3F)C2=O)C(=O)N1` (stereo partly shown) [Example 305]: the DC50 at IKZF1 was more than 1000 nM; on IKZF2 [1] it was 4 nM; on IKZF2 [2], 14 nM. Moreover, the values for the Dmax on IKZF2 [1] and at IKZF2 [2] were 95% and 96%, respectively.
